From PMC3767463 (Journal of the American Chemical Society, 2013) come the findings set out here.

Data set [1] has as its system DU145 cells. Nature of the data set: MTT cell viability. It is filed as cell-based, human. To be noted: DU145 (non-functional p53), 0–100 μM, 48 h.
Data set [2] has as its system PC3 cells. Nature of the data set: MTT cell viability. To be noted: PC3 (non-functional p53), 0–100 μM, 48 h. It is filed as cell-based, human.
Data set [3] deals with p53 level. The format is cell-based, human. To be noted: LNCaP; 50 μM MCo-PMI, 8–48 h; western blot.
Data set [4] deals with HdmX level. The data set is described as follows: Western blot of LNCaP cell extracts. It is filed as cell-based, human. As to conditions: 48 h, cyclotides 50 μM.
Data set [5] concerns caspase-3/7. Nature of the data set: Caspase-3/7 assay in LNCaP cells. The format is cell-based, human. As to conditions: LNCaP cells treated 30 h.
For data set [6], the system named is LNCaP cells. The data set is described as follows: Propidium iodide flow cytometric cell cycle assay. The format is cell-based, human. As to conditions: LNCaP cells treated 24 h; propidium iodide flow cytometry. On the technique in general: Flow cytometry measures light scatter and fluorescence of single cells or particles in a stream.
The conditions of data set [7]: mice, MCo-PMI 40 mg/kg i.v. daily.
Data set [8] can be described thus: in vitro. As to conditions: human, human serum.
The test system of data set [9] is HBL100 cells. Nature of the data set: MTT cell viability. As to conditions: HBL100 normal breast epithelial cells, 48 h, triplicate.
The target of data set [10] is serum proteins (human).

As for `CC[C@H](C)[C@@H]1NC(=O)[C@@H]2CSSC[C@@H]3NC(=O)[C@H](C(C)C)NC(=O)CNC(=O)CNC(=O)[C@H](C)NC(=O)[C@H](CO)NC(=O)[C@H](CC(C)C)NC(=O)[C@H](CC(C)C)NC(=O)[C@H](CC(N)=O)NC(=O)[C@H](Cc4c[nH]c5ccccc45)NC(=O)[C@H](Cc4ccc(O)cc4)NC(=O)[C@H](CCC(=O)O)NC(=O)[C@H](C)NC(=O)[C@H](Cc4ccccc4)NC(=O)[C@H](CO)NC(=O)[C@H]([C@@H](C)O)NC(=O)[C@@H]4CCCN4C(=O)[C@H](C)NC(=O)[C@H](CCCCN)NC(=O)[C@H](CO)NC(=O)[C@H](C)NC(=O)CNC(=O)[C@H](CO)NC(=O)CNC(=O)[C@H](CO)NC(=O)CNC(=O)[C@@H]4CSSC[C@H](NC(=O)[C@H](CC(=O)O)NC(=O)[C@H](CO)NC(=O)[C@H](CC(=O)O)NC(=O)[C@H](CCCNC(=N)N)NC(=O)[C@H](CCCNC(=N)N)NC(=O)[C@H](CSSC[C@H](NC1=O)C(=O)N[C@@H](CCCNC(=N)N)C(=O)NCC(=O)N[C@@H](CC(N)=O)C(=O)NCC(=O)N[C@@H](Cc1ccc(O)cc1)C(=O)N4)NC(=O)[C@H](CCCNC(=N)N)NC(=O)[C@H](CCC(N)=O)NC(=O)[C@H](CC(C)C)NC(=O)[C@H]([C@@H](C)CC)NC(=O)[C@H](CCCCN)NC(=O)[C@@H]1CCCN1C3=O)C(=O)N1CCC[C@H]1C(=O)NCC(=O)N[C@@H](C)C(=O)N2` [MCo-PMI], the “Association constant rate to human serum proteins” value worked out at 2400 M⁻¹ s⁻¹ and the “Dissociation constant rate from human serum proteins” value came to 0.022 s⁻¹. Besides, in data set [1], the “Effect on cell viability” value is recorded as “unaffected”. For the same molecule, the “Effect on cell viability” value in [2] is on record as “unaffected”. Besides, the “Time of peak p53 level post-treatment” value in data set [3] lay in the range of 36 to 48 h. Moreover, the “Effect on intracellular HdmX level” value in data set [4] is “downregulated”. Besides, the Caspase-3/7 activation result in data set [5] was “dose-dependent caspase-3 activation”. In addition, the “Effect on cell cycle progression” value in data set [6] is recorded as “depression of the S-phase fraction”. Besides, in data set [7], the “Body weight throughout treatment” value is given as “maintained healthy weight”; the “Organs and tissues at necropsy” value was “no gross abnormalities”. In data set [8], this molecule had a half-life of 30 ± 4 h.
As for `COc1ccc(C2=N[C@@H](c3ccc(Cl)cc3)[C@@H](c3ccc(Cl)cc3)N2C(=O)N2CCNC(=O)C2)c(OC(C)C)c1` [Nutlin-3, reference compound], the “Effect on cell viability” value in data set [1] and in data set [2] was “unaffected” each time. In data set [6], the “Effect on cell cycle progression” value is given as “depression of the S-phase fraction”. Also, in data set [9], the “EC50, cytotoxicity to non-cancerous cells” value was found to be 33 ± 5 µM.

B1: cyclotide Momordica cochinchinensis trypsin inhibitor-I (natural protein)
chain: cyclo(SGSDGGVCPKILQRCRRDSDCPGACICRGNGYCG)
modifications: disulfide (positions not given here)
As to B1, in data set [10], the percent bound stood at 80%.

A word on the half-life: it is the time in which the quantity being followed falls by half. A high value points to slow loss.
